Laboratory results reported in patent publication US11058700B2, “Macrocyclic lactones and uses thereof as modulators of purinergic receptors” (City of Hope, priority 2015, dated 2021).

Legend:
[1] = target: T1, P2X4/P2X7/Pannexin-1 channels (Mus musculus, UniProt Q9JJX6); assay: Membrane permeabilization to YOPRO-1; type: cell-based; conditions: 4T1.2 cells, Ivermectin 0.5-32 μM, ATP 0.3-3 mM, 30 min
T1 construct: endogenous in cells; host or cells: 4T1.2 mouse breast cancer cells
T1 sequence (Q9JJX6 1-388): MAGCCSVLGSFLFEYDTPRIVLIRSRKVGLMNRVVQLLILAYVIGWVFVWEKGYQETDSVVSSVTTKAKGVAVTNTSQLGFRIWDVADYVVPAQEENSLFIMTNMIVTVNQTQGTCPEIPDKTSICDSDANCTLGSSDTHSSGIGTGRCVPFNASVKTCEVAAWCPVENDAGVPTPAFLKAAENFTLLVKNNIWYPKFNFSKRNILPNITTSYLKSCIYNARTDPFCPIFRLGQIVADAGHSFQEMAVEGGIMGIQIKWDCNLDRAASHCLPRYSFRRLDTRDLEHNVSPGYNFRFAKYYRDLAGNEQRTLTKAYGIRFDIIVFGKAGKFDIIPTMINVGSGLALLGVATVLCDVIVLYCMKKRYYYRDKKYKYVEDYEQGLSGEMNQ
Description: FIGS. 3A-3G. Dual roles of ATP and purinergic signaling in Ivermectin's killing. FIG. 3A: Depletion of extracellular ATP with Apyrase (2500 μunits/ml) exacerbates killing of 4T1.2 cell by Ivermectin. FIG. 3B: Extracellular Ca^2− and ATP contain Ivermectin-induced cell swelling. 4T1.2 cells were treated with 32 μM Ivermectin for 4 h in the presence of 1 mM EDTA or 2500 μunits/ml Apyrase. FIG. 3C: Ivermectin (0.5-32 μM) and high concentrations of extracellular ATP (0.3-3 mM) synergistically open pannexin-1 channels and permeabilize the membrane on live cells (7AAD-positive dead cells were gated out). 4T1.2 cells were treated for 30 min as indicated in the presence of 7 AAD and 5 μM YOPRO-1. FIG. 3D: Analysis of supernatants from Ivermectin-treated murine and human TNBC cells showing rapid release of ATP followed by its transient depletion. Depletion of extracellular ATP with Apyrase (2500 μunits/ml) was used as a positive control. FIG. 3E: Analysis of membrane-proximal ATP levels using cancer cells engineered to express a membrane-bound Luciferase. […] FIG. 3G: The P2X7-specific inhibitor KN-62 (1-10 μM) blocks Ivermectin cytotoxicity (IVM 8-32 μM, 4-48 h treatments). Asterisk (*) indicates p<0.05 relative to untreated or Ivermectin alone controls, respectively.
FIGS. 10A-10L. Extracellular Dual roles of ATP and purinergic signaling in Ivermectin's killing. 4T1.2 cells were treated with Ivermectin for 4 h in the presence of different inhibitors at μM concentrations as indicated. FIG. 10A: The non-specific P2 purinergic receptor inhibitor Suramin (4-400 μM) exacerbates Ivermectin-induced cell death. FIG. 10B: Inhibition of extracellular ATPases with PSB 069 protects against Ivermectin cytotoxicity. FIG. 10C: Blockade of pannexin-1 channels with Panx-1 mimetic blocking peptide (Anaspec) and Probenecid at μM concentrations as indicated exacerbates killing. […] FIG. 10E: ATP plays a transiently protective role only in the mouse but not human breast cancer cells. 4T1.2 and MDA-MB-231 cells were treated with 32 μM Ivermectin for 4 h in the presence of ATP at mM concentrations as indicated. FIG. 10F: qPCR showing up-regulation of P2X4 and P2X7 receptors on several murine cancer cell lines, including 4T1.2 and DD-Her2/neu (breast), and B16 (melanoma). […] Expression of P2X and P2Y purinergic receptors, NOX family members, GABA, and Glycine receptors was analyzed using publicly available breast cancer cell lines datasets. Statistically significant (p<0.05) up-regulation and down-regulation in breast cancer versus normal cells is shown in red and blue, respectively. FIG. 10H: Correlation between sensitivity to Ivermectin and ATP across various human cancer cell lines. Cancer cells were treated for 24 h with 3 mM ATP or Ivermectin at 16 and 32 μM doses as indicated. […]

[2] = system: murine and human TNBC cells; assay: HMGB1 and LDH Release; type: cell-based, mouse
Description: FIGS. 6A-6E. Ivermectin induces autophagy. FIG. 6A: Ivermectin induces autophagy in breast cancer cells. MDA-MB-231 GFL-LC3 cells were treated with different doses of Ivermectin for 24 h and formation of green fluorescent puncta was evaluated by confocal fluorescence microscopy. FIG. 6B: Western blot confirming the induction of autophagy in both murine and human breast cancer cells, as evidenced by LC3 lipidation and autophagic degradation of p62(SQSTM1). […] MDA-MB-231 cells (triplicates) were treated with different doses of Ivermectin for up to 24h and surface stained with antibody-specific for the human M6P receptor versus isotype control. Similarly, 4T1.2 and MB231 cells were treated with different doses of Ivermectin for 4-24 h, and were stained with an antibody specific for both human and mouse CRT versus isotype control. Mean fluorescent intensity (MFI) values and ratios versus isotype control were calculated after gating on live/membrane-intact cells. FIG. 6D: Ivermectin (32 μM) induces release of HMGB1 from murine and human TNBC cells (triplicates). […] Asterisk (*) indicates p<0.05 relative to untreated or Ivermectin alone controls, respectively.
HMGB1 and LDH Release. HMGB1 and LDH release were evaluated using an HMGB1 detection kit (IBL International, ST51011) and the CYTOTOX96® Non Radioactive Cytotoxicity Assay (Promega, G1780),following manufacturers' instructions.

**Q.** Which “opening of channels / permeabilization to YOPRO-1 with ATP” value [1] does the source give for CC[C@H](C)[C@H]1O[C@]2(CC[C@@H]1C)C[C@@H]1C[C@@H](C/C=C(\C)[C@@H](O[C@H]3C[C@H](OC)[C@@H](O[C@H]4C[C@H](OC)[C@@H](O)[C@H](C)O4)[C@H](C)O3)[C@@H](C)/C=C/C=C3\CO[C@@H]4[C@H](O)C(C)=C[C@@H](C(=O)O1)[C@]34O)O2 [Ivermectin] here?
**A.** synergized with ATP in opening P2X4/P2X7/Pannexin-1 channels

**Q.** And the HMGB1 release ([2]; 32 μM)?
**A.** potent inducer of HMGB1 release

**Q.** And the LDH release ([2]; normalized to maximum release (lysis))?
**A.** induces release of cytosolic LDH
